“And” between values parts separate entries of the source, which are not always exact repeats. Equal entries are not always repeated. Values belong to the molecule of their own block, whether it stands above or below them.
Test system: 233499-124-R-J3-PDC complex spheroid viability
Experiment: Anticancer human tumor 233499-124-R-J3-PDC patient-derived colon adenocarcinoma cell line growth inhibition [CLK]
Details: for viability, T/C: stronger effect = lower value
Summary of the method: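 Multi-cell-type spheroids combined patient-derived tumor cells with HUVEC endothelial cells and human mesenchymal stem cells. Paired agents were dosed in half-log steps down from about clinical Cmax, or from 10 microM where Cmax was unknown.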

[1] = curve of first compound, second compound 0.0316 µM
[2] = curve of first compound, second compound 0.1 µM
[3] = curve of first compound, second compound 0.316 µM
[4] = curve of first compound, second compound 1 µM
[5] = curve of first compound, second compound 3.16 µM
[6] = curve of first compound, second compound 10 µM
[7] = second compound 0.0316 µM, first compound 0.0316 µM
[8] = second compound 0.0316 µM, first compound 0.1 µM
[9] = second compound 0.0316 µM, first compound 0.316 µM
[10] = second compound 0.0316 µM, first compound 1 µM
[11] = second compound 0.0316 µM, first compound 3.16 µM
[12] = second compound 0.0316 µM, first compound 10 µM
[13] = second compound 0.1 µM, first compound 0.0316 µM
[14] = second compound 0.1 µM, first compound 0.1 µM
[15] = second compound 0.1 µM, first compound 0.316 µM
[16] = second compound 0.1 µM, first compound 1 µM
[17] = second compound 0.1 µM, first compound 3.16 µM
[18] = second compound 0.1 µM, first compound 10 µM
[19] = second compound 0.316 µM, first compound 0.0316 µM
[20] = second compound 0.316 µM, first compound 0.1 µM
[21] = second compound 0.316 µM, first compound 0.316 µM
[22] = second compound 0.316 µM, first compound 1 µM
[23] = second compound 0.316 µM, first compound 3.16 µM
[24] = second compound 0.316 µM, first compound 10 µM
[25] = second compound 1 µM, first compound 0.0316 µM
[26] = second compound 1 µM, first compound 0.1 µM
[27] = second compound 1 µM, first compound 0.316 µM
[28] = second compound 1 µM, first compound 1 µM
[29] = second compound 1 µM, first compound 3.16 µM
[30] = second compound 1 µM, first compound 10 µM
[31] = second compound 3.16 µM, first compound 0.0316 µM
[32] = second compound 3.16 µM, first compound 0.1 µM
[33] = second compound 3.16 µM, first compound 0.316 µM
[34] = second compound 3.16 µM, first compound 1 µM
[35] = second compound 3.16 µM, first compound 3.16 µM
[36] = second compound 3.16 µM, first compound 10 µM
[37] = second compound 10 µM, first compound 0.0316 µM
[38] = second compound 10 µM, first compound 0.1 µM
[39] = second compound 10 µM, first compound 0.316 µM
[40] = second compound 10 µM, first compound 1 µM
[41] = second compound 10 µM, first compound 3.16 µM
[42] = second compound 10 µM, first compound 10 µM
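Note: spheroids exposed to the drug combinations for seven days.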
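Throughout, for viability, T/C: percent viability relative to DMSO vehicle control wells taken as 100%.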

Structure (SMILES): NC(=O)C(=Cn1cnc(-c2cc(C(F)(F)F)cc(C(F)(F)F)c2)n1)c1cncnc1 + CNC(=O)c1ccc(Nc2nc(OC3CCCC3)c3c(-c4ccc5nc(C)oc5c4)c[nH]c3n2)c(OC)c1
IC50 [1]: 618 nM
IC50 [2]: 263 nM
IC50 [3]: 197 nM
IC50 [4]: 133 nM
IC50 [5]: 157 nM
IC50 [6]: 161 nM
viability, T/C (second compound 0.0316 µM, first compound 0.00949 µM): 85.5%
viability, T/C (second compound 0.0316 µM, first compound 0.03 µM): 85.5%
viability, T/C (second compound 0.0316 µM, first compound 0.0949 µM): 79.8%
viability, T/C (second compound 0.0316 µM, first compound 0.3 µM): 78.2%
viability, T/C (second compound 0.0316 µM, first compound 0.949 µM): 33.4%
viability, T/C (second compound 0.0316 µM, first compound 3 µM): 15.5%
viability, T/C (second compound 0.1 µM, first compound 0.00949 µM): 85.3%
viability, T/C (second compound 0.1 µM, first compound 0.03 µM): 80.8%
viability, T/C (second compound 0.1 µM, first compound 0.0949 µM): 72.8%
viability, T/C (second compound 0.1 µM, first compound 0.3 µM): 34.5%
viability, T/C (second compound 0.1 µM, first compound 0.949 µM): 44.1%
viability, T/C (second compound 0.1 µM, first compound 3 µM): 15.7%
viability, T/C (second compound 0.316 µM, first compound 0.00949 µM): 74.6%
viability, T/C (second compound 0.316 µM, first compound 0.03 µM): 90.3%
viability, T/C (second compound 0.316 µM, first compound 0.0949 µM): 81.5%
viability, T/C (second compound 0.316 µM, first compound 0.3 µM): 31.8%
viability, T/C (second compound 0.316 µM, first compound 0.949 µM): 35.3%
viability, T/C (second compound 0.316 µM, first compound 3 µM): 12%
viability, T/C (second compound 1 µM, first compound 0.00949 µM): 75.4%
viability, T/C (second compound 1 µM, first compound 0.03 µM): 75.1%
viability, T/C (second compound 1 µM, first compound 0.0949 µM): 51.2%
viability, T/C (second compound 1 µM, first compound 0.3 µM): 39.9%
viability, T/C (second compound 1 µM, first compound 0.949 µM): 11.4%
viability, T/C (second compound 1 µM, first compound 3 µM): 10.6%
viability, T/C (second compound 3.16 µM, first compound 0.00949 µM): 68.9%
viability, T/C (second compound 3.16 µM, first compound 0.03 µM): 65%
viability, T/C (second compound 3.16 µM, first compound 0.0949 µM): 71.1%
viability, T/C (second compound 3.16 µM, first compound 0.3 µM): 26.3%
viability, T/C (second compound 3.16 µM, first compound 0.949 µM): 9.48%
viability, T/C (second compound 3.16 µM, first compound 3 µM): 4.46%
viability, T/C (second compound 10 µM, first compound 0.00949 µM): 73.5%
viability, T/C (second compound 10 µM, first compound 0.03 µM): 69.8%
viability, T/C (second compound 10 µM, first compound 0.0949 µM): 67%
viability, T/C (second compound 10 µM, first compound 0.3 µM): 30.5%
viability, T/C (second compound 10 µM, first compound 0.949 µM): 6.86%
viability, T/C (second compound 10 µM, first compound 3 µM): 1.62%

Structure (SMILES): CC1(C)CCC(CN2CCN(c3ccc(C(=O)NS(=O)(=O)c4ccc(NCC5CCOCC5)c([N+](=O)[O-])c4)c(Oc4cnc5[nH]ccc5c4)c3)CC2)=C(c2ccc(Cl)cc2)C1 + CN1CCN(c2cc(C(=O)Nc3cc4cc(-c5cnn(C)c5)ccc4cn3)ccn2)CC1
IC50 [1]: 6390 nM
IC50 [2]: 6370 nM
IC50 [3]: 5740 nM
IC50 [4]: < 31.6 nM
IC50 [5]: < 31.6 nM
IC50 [6]: < 31.6 nM
viability, T/C [7]: 93.1%
viability, T/C [8]: 104%
viability, T/C [9]: 102%
viability, T/C [10]: 112%
viability, T/C [11]: 113%
viability, T/C [12]: 15.2%
viability, T/C [13]: 96.4%
viability, T/C [14]: 109%
viability, T/C [15]: 100%
viability, T/C [16]: 109%
viability, T/C [17]: 112%
viability, T/C [18]: 14.5%
viability, T/C [19]: 86.1%
viability, T/C [20]: 97%
viability, T/C [21]: 89%
viability, T/C [22]: 98.6%
viability, T/C [23]: 93.8%
viability, T/C [24]: 9.92%
viability, T/C [25]: 0.68%
viability, T/C [26]: 5.6%
viability, T/C [27]: 5.7%
viability, T/C [28]: 0.77%
viability, T/C [29]: 0.88%
viability, T/C [30]: 1.46%
viability, T/C [31]: 0.9%
viability, T/C [32]: 0.86%
viability, T/C [33]: 1.07%
viability, T/C [34]: 0.81%
viability, T/C [35]: 1.05%
viability, T/C [36]: 0.73%
viability, T/C [37]: 0.67%
viability, T/C [38]: 0.49%
viability, T/C [39]: 0.43%
viability, T/C [40]: 0.49%
viability, T/C [41]: 0.56%
viability, T/C [42]: 0.29%

Structure (SMILES): CC(Nc1ccc2c(c1)OCCn1cc(N3C(=O)OCC3C(F)F)nc1-2)C(N)=O (configuration not stated) + CNC(=O)c1ccc(Nc2nc(OC3CCCC3)c3c(-c4ccc5nc(C)oc5c4)c[nH]c3n2)c(OC)c1
IC50 [1]: > 10000 nM
IC50 [2]: 3880 nM
IC50 [3]: 2810 nM
IC50 [4]: 316 nM
IC50 [5]: 624 nM
IC50 [6]: 1080 nM
viability, T/C [7]: 85.3%
viability, T/C [8]: 94.6%
viability, T/C [9]: 81%
viability, T/C [10]: 72.7%
viability, T/C [11]: 65.5%
viability, T/C [12]: 53.6%
viability, T/C [13]: 68.9%
viability, T/C [14]: 75.1%
viability, T/C [15]: 72.2%
viability, T/C [16]: 64.8%
viability, T/C [17]: 52.9%
viability, T/C [18]: 38.6%
viability, T/C [19]: 66.9%
viability, T/C [20]: 65.7%
viability, T/C [21]: 72.2%
viability, T/C [22]: 58.4%
viability, T/C [23]: 49.6%
viability, T/C [24]: 32.5%
viability, T/C [25]: 74.8%
viability, T/C [26]: 74.9%
viability, T/C [27]: 50%
viability, T/C [28]: 42.7%
viability, T/C [29]: 45.9%
viability, T/C [30]: 42.4%
viability, T/C [31]: 61.3%
viability, T/C [32]: 63.6%
viability, T/C [33]: 56.4%
viability, T/C [34]: 41.1%
viability, T/C [35]: 42.3%
viability, T/C [36]: 37%
viability, T/C [37]: 60.8%
viability, T/C [38]: 55.9%
viability, T/C [39]: 68.1%
viability, T/C [40]: 44.8%
viability, T/C [41]: 39%
viability, T/C [42]: 22.2%

The next lines start with results.

IC50 (curve of compound): > 10000 nM
Structure (SMILES): CCCS(=O)(=O)Nc1ccc(F)c(C(=O)c2c[nH]c3ncc(-c4ccc(Cl)cc4)cc23)c1F
viability, T/C (compound 0.0316 µM): 91.2% and 100%
viability, T/C (compound 0.1 µM): 97.3% and 103%
viability, T/C (compound 0.316 µM): 111% and 99.1%
viability, T/C (compound 1 µM): 104% and 110%
viability, T/C (compound 3.16 µM): 104% and 105%
viability, T/C (compound 10 µM): 98% and 65.2%

IC50 (curve of compound): > 300 nM
Structure (SMILES): C=CC(=O)Nc1cc(Nc2nccc(-c3cn(C)c4ccccc34)n2)c(OC)cc1N(C)CCN(C)C
viability, T/C (compound 0.000949 µM): 92.5% and 102%
viability, T/C (compound 0.003 µM): 91.5% and 98.6%
viability, T/C (compound 0.00949 µM): 99.7% and 103%
viability, T/C (compound 0.03 µM): 96.9% and 87.8%
viability, T/C (compound 0.0949 µM): 86% and 93.7%
viability, T/C (compound 0.3 µM): 76.8% and 82.2%

IC50 (curve of compound): 4.97 nM and 4.96 nM
Structure (SMILES): CC(C)CC(NC(=O)C(Cc1ccccc1)NC(=O)c1cnccn1)B(O)O (configuration not stated)
viability, T/C (compound 0.000949 µM): 101% and 106%
viability, T/C (compound 0.003 µM): 88.8% and 88.5%
viability, T/C (compound 0.00949 µM): 0.33% and 0.18%
viability, T/C (compound 0.03 µM): 0.31% and 0.22%
viability, T/C (compound 0.0949 µM): 0.13% and 0.2%
viability, T/C (compound 0.3 µM): 0.14% and 0.2%
